{"source": "patent US6652866B1", "about": "(priority 1997, dated 2003)", "origin": "cited, not measured here", "tested_on": "scrapie", "settings": "hamsters", "data": [{"smiles": "C[C@@H]1[C@H](O)[C@@H](C)/C=C/C=C/C=C/C=C/C=C/C=C/C=C/[C@H](O[C@@H]2O[C@H](C)[C@@H](O)[C@H](N)[C@@H]2O)C[C@@H]2O[C@](O)(C[C@@H](O)C[C@@H](O)[C@H](O)CC[C@@H](O)C[C@@H](O)CC(=O)O[C@H]1C)C[C@H](O)[C@H]2C(=O)O", "note": "[amphoteracin-b]", "values": [{"measurement": "incubation time of scrapie", "value": "prolonged the incubation time"}, {"measurement": "prevention of onset of neurological symptoms, neuronal destruction and death", "value": "ineffective"}]}]}
